# Laboratory results published in US8506984B2, “Therapeutic agent elution control process” (Cordis Corporation, priority 2006, dated 2013).
# pIC50: −log10 of the molar value.
# Tests used:
# [1] = tested on: human coronary artery smooth muscle cells; experiment: Proliferation of non-synchronized cultured human coronary artery smooth muscle cells stimulated with two percent fetal bovine serum; assay type: cell-based; details: for effect of added agent on anti-proliferative rapamycin dose response: added to rapamycin-treated cells
# Excerpt: The multiple curves represent various concentrations of mycophenolic acid ranging from zero to one thousand nanomolar concentrations. […] This potentiation observed in cultured coronary artery smooth muscle cells preferably translates to an enhancement in anti-restenotic efficacy following vascular injury and a reduction in the required amount of either agent to achieve the desired anti-restenotic effect.
# FIG. 58 illustrates, in graphical format, the anti-proliferative activity of cladribine in non-synchronized cultured human coronary artery smooth muscle cells stimulated with two percent fetal bovine serum.
# The multiple curves represent various concentrations of cladribine ranging from zero to nine hundred nanomolar concentrations. […] As illustrated, the percent inhibition increases substantially as the dose of cladribine increases.
# [2] = Drug concentration in liquid formulations (liquid chromatography / HPLC); assay type: physicochemical; details: Vitamin E TPGS excipient, water and ethanol (<2%) co-solvents
# Excerpt: In accordance with exemplary embodiments of the present invention, a series of liquid formulations were developed for the local or regional delivery of water insoluble compounds such as sirolimus and its analogs, including CCI-779, ABT-578 and everolimus, through weeping balloons and catheter injection needles. […] These liquid formulations increase the apparent solubility of the pharmacologically active but water insoluble compounds by two to four orders of magnitude as compared to the solubility limits of the compounds in water. These liquid formulations rely on the use of a very small amount of organic solvents such as Ethanol (typically less than two percent) and a larger amount of safe amphiphilic (of or relating to a molecule having a polar, water soluble group attached to a non-polar, water insoluble […]) excipients such as polyethylene glycol (PEG 200, PEG 400) and vitamin E TPGS to enhance the solubility of the compounds. These liquid formulations of highly water insoluble compounds are stable and readily flowable at room temperature. Certain excipients, such as Vitamin E TPGS and BHT may be utilized to enhance the storage stability of sirolimus compounds through their anti-oxidation properties. […]
# [3] = tested on: human coronary artery smooth muscle cells; experiment: Proliferation of synchronized cultured human coronary artery smooth muscle cells stimulated with two percent fetal bovine serum; assay type: cell-based; details: for effect of added agent on anti-proliferative rapamycin dose response: added to rapamycin-treated cells
# Excerpt: (§1) The multiple curves represent various concentrations of topotecan ranging from zero to three hundred nanomolar concentrations.
# (§2) The multiple curves represent various concentrations of etoposide ranging from zero to eight hundred nanomolar concentrations.
# The multiple curves represent various concentrations of Panzem® ranging from zero to 100 micromolar concentrations.
# [4] = tested on: human coronary artery smooth muscle cell; experiment: MTS cytotoxicity assay; assay type: cell-based; details: concentrations up to 30,000.00 nanomolar
# Excerpt: Typically, a control is utilized to determine baseline toxicity.
# [5] = tested on: cell viability; experiment: Cell viability assay; assay type: cell-based
# Excerpt: as §1, §2
# [6] = Porcine drug elution PK study of dual drug eluting stent; assay type: in vivo; details: after eight (8) days of implantation; single-layer sirolimus/cilostazol coating (FIG. 83), 100 μg BMA overcoat
# Excerpt: Another critical parameter for the performance of the thrombus resistance of a device coated with cilostazol is the duration of the drug release from the coating. This is of particular significance in the two weeks after device implantation. In the porcine drug elution PK studies of the dual drug eluting coating, both cilostazol and sirolius were slowly released from the coating, resulting in a sustained drug release profile. The purpose of the porcine PK study is to assess the local pharmacokinetics of a drug eluting stent at a given implantation time. Normally three stents are implanted in three different coronary arteries in a pig for a given time point and then retrieved for total drug recovery analysis. The stents are retrieved at predetermined time points; namely, 1, 3 and 8 days. The stents are extracted and the total amount of drug remaining on the stents is determined by analysis utilizing HPLC (high performance liquid chromatography) for total drug amount. The difference between the original amount of drug on the stent and the amount of drug retrieved at a given time represents the amount of drug released in that period. The continuous release of drug into surrounding arterial tissue is what prevents the neointimal growth and restenosis in the coronary artery. A normal plot represents the percentage of total drug released (%, y-axis) vs. time of implantation (day, x-axis). […]
# [7] = tested on: human coronary artery smooth muscle cell; experiment: Human coronary artery smooth muscle cell proliferation, in vitro cell culture study (trichostatin A); assay type: cell-based
# Excerpt: FIG. 51 is a graph of the inhibition of coronary artery smooth muscle cells by trichostatin A in a cell culture study.
# [8] = tested on: tumor cell lines; details: cited from earlier work
# [9] = In vitro release from sirolimus/cilostazol single layer stent coating; assay type: physicochemical; details: single-layer sirolimus/cilostazol coating (FIG. 83)
smiles,measurement,setting,value
COc1c(C)c2c(c(O)c1C/C=C(\C)CCC(=O)O)C(=O)OC2 [mycophenolic acid],effect of added agent on anti-proliferative rapamycin dose response,[1],potentiates the anti-proliferative activity of rapamycin
CO[C@H]1C[C@@H]2CC[C@@H](C)[C@@](O)(O2)C(=O)C(=O)N2CCCC[C@H]2C(=O)O[C@H]([C@H](C)C[C@@H]2CC[C@@H](OC(=O)C(C)(CO)CO)[C@H](OC)C2)CC(=O)[C@H](C)/C=C(\C)[C@@H](O)[C@@H](OC)C(=O)[C@H](C)C[C@H](C)/C=C/C=C/C=C/1C [CCI-779],concentration in the final solution (HPLC assay),[2],15000 µg/mL
"Nc1nc(Cl)nc2c1ncn2[C@H]1C[C@H](O)[C@@H](CO)O1 [Cladribine, 2-chlorodeoxyadenosine]",effect of added agent on anti-proliferative rapamycin dose response,[1],potentiate the anti-proliferative activity of rapamycin
same,inhibition of human coronary artery smooth muscle cell proliferation,[1]; two percent fetal bovine serum,completely inhibits
"COc1cc2c(cc1O)CC[C@@H]1[C@@H]2CC[C@]2(C)[C@@H](O)CC[C@@H]12 [Panzem®, 2-methoxyestradiol]",effect of added agent on anti-proliferative rapamycin dose response,[3],increases the percent of inhibition of rapamycin alone
same,inhibition of human coronary artery smooth muscle cell proliferation in vitro,[3]; two percent fetal bovine serum,extremely effective inhibitor
same,human coronary artery smooth muscle cell survival (MTS),[4],do not reduce human coronary artery smooth muscle cell survival
CC[C@@]1(O)C(=O)OCc2c1cc1n(c2=O)Cc2cc3c(CN(C)C)c(O)ccc3nc2-1 [topotecan],effect of added agent on anti-proliferative rapamycin dose response,[3],potentiate the anti-proliferative activity of rapamycin
same,cytotoxicity in cell viability assay,[5]; concentrations up to one micromolar,non-cytotoxic
COc1cc([C@@H]2c3cc4c(cc3[C@@H](O[C@@H]3O[C@@H]5CO[C@@H](C)O[C@H]5[C@H](O)[C@H]3O)[C@H]3COC(=O)[C@H]23)OCO4)cc(OC)c1O [etoposide],effect of added agent on anti-proliferative rapamycin dose response,[1],potentiate the anti-proliferative activity of rapamycin
same,cytotoxicity in cell viability assay,[5]; concentrations up to ten micromolar,non-cytotoxic
"CO[C@H]1C[C@@H]2CC[C@@H](C)[C@@](O)(O2)C(=O)C(=O)N2CCCC[C@H]2C(=O)O[C@H]([C@H](C)C[C@@H]2CC[C@@H](O)[C@H](OC)C2)CC(=O)[C@H](C)/C=C(\C)[C@@H](O)[C@@H](OC)C(=O)[C@H](C)C[C@H](C)/C=C/C=C/C=C/1C [Rapamycin, rapamycin]",drug remaining in the drug coating,[6],~80%
CC(/C=C/C(=O)NO)=C\[C@@H](C)C(=O)c1ccc(N(C)C)cc1 [trichostatin A],inhibition of human coronary artery smooth muscle cell proliferation,[7],completely inhibit
same,pIC50,[7]; read-out: anti-proliferative IC50,~8.22
same,anti-proliferative IC50,[8],low nM range
"O=C1CCc2cc(OCCCCc3nnnn3C3CCCCC3)ccc2N1 [cilostazol, 6[4-(1-cyclohexyl-1H-tetrazol-5-yl)-butoxy]-3,4-dihydro-2-(1H)-quinolinone]",drug remaining in the drug coating,[6],~80%
same,in vitro release,[9],~35%
